Test results taken from patent US12617773B2, “Azetidin-3-ylmethanol derivatives as CCR6 receptor modulators” (Idorsia Pharmaceuticals Ltd, priority 2020, dated 2026).

biological target: T1, human CCR6 (Homo sapiens, UniProt P51684); experiment: FLIPR assay (inhibition of CCL20-induced calcium signal); type: cell-based; details: HEK-293 cells expressing human CCR6; mean values where determined several times; read-out: FLIPR IC50
T1 construct: expressed in transfected cells; host or cells: HEK-293
T1 sequence (P51684 1-374): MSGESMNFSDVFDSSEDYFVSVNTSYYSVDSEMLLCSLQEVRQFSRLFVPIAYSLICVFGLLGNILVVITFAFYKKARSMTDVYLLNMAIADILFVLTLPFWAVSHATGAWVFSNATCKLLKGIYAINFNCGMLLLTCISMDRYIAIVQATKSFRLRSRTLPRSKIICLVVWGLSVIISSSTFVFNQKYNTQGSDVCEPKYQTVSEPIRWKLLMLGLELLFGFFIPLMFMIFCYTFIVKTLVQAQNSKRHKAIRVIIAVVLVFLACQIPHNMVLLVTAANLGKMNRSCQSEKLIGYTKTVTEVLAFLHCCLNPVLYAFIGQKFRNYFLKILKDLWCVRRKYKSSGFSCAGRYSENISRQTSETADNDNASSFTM
Method in brief: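 Dye-loaded HEK-293 cells expressing human CCR6 were preincubated with compound for 30 min at room temperature in the dark, then challenged with 10 nM CCL20 (final). Fluorescence was tracked on FLIPR, and baseline-subtracted peak emission over base after agonist addition gave inhibition dose-response curves for IC50.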

| Compound | IC50 [µM] |
| --- | --- |
| CC(C)c1ccc([C@](O)(c2cnnc(Oc3ccccc3CCO)c2)C2(C)CN(C)C2)cc1 [Example 394, 2-(2-{5-[(R)-(1,3-Dimethyl-azetidin-3-yl)-hydroxy-(4-isopropyl-phenyl)-methyl]-pyridazin-3-yloxy}-phenyl)-ethanol] | 1.04 |
| Cc1cc([C@](C)(O)C#Cc2cncc([C@@](O)(c3ccc(C(C)C)cc3)C3(C)CN(C)C3)c2)ncn1 [Example 400] | 0.16 |
| CCC(O)(CCc1cncc([C@@](O)(c2ccc(C(C)C)cc2)C2(C)CN(C)C2)c1)c1cc(C)ncn1 (stereo partly drawn) [Example 408, 1-{5-[(R)-(1,3-Dimethyl-azetidin-3-yl)-hydroxy-(4-isopropyl-phenyl)-methyl]-pyridin-3-yl}-3-(6-methyl-pyrimidin-4-yl)-pentan-3-ol] | 0.138 |
| Cc1cncc(C(C)(O)CCc2cncc([C@@](O)(c3ccc(C(C)C)cc3)C3(C)CN(C)C3)c2)c1 (stereo partly shown) [Example 417] | 0.118 |
| CC(C)c1ccc([C@](O)(c2cnnc(CCC3(O)CCCc4cccnc43)c2)C2(C)CN(C)C2)cc1 (stereo partly drawn) [Example 418, 8-(2-{5-[(R)-(1,3-Dimethyl-azetidin-3-yl)-hydroxy-(4-isopropyl-phenyl)-methyl]-pyridazin-3-yl}-ethyl)-5,6,7,8-tetrahydro-quinolin-8-ol] | 0.19 |
| COc1cccc(C(C)(O)CCc2cc([C@@](O)(c3ccc(C(C)C)cc3)C3(C)CN(C)C3)cnn2)n1 (stereo partly drawn) [Example 419, 4-{5-[(R)-(1,3-Dimethyl-azetidin-3-yl)-hydroxy-(4-isopropyl-phenyl)-methyl]-pyridazin-3-yl}-2-(6-methoxy-pyridin-2-yl)-butan-2-ol] | 0.155 |
| Cc1cccc(C(C)(O)CCc2cc([C@@](O)(c3ccc(C(C)C)cc3)C3(C)CN(C)C3)cnn2)n1 (stereo partly drawn) [Example 420, 4-{5-[(R)-(1,3-Dimethyl-azetidin-3-yl)-hydroxy-(4-isopropyl-phenyl)-methyl]-pyridazin-3-yl}-2-(6-methyl-pyridin-2-yl)-butan-2-ol] | 0.277 |
| CC(C)c1ccc(C(O)(c2cccc(N3CCCC3)n2)C2(C)CN(C)C2)cc1 (stereo not shown) [Example 421, (1,3-Dimethyl-azetidin-3-yl)-(4-isopropyl-phenyl)-(6-pyrrolidin-1-yl-pyridin-2-yl)-methanol] | 0.712 |
| CC(C)c1ccc([C@](O)(c2cncc(C3CCC(O)CC3)c2)C2(C)CN(C)C2)cc1 (stereo partly drawn) [Example 425, 4-{5-[(R)-(1,3-Dimethyl-azetidin-3-yl)-hydroxy-(4-isopropyl-phenyl)-methyl]-pyridin-3-yl}-cyclohexanol] | 1.73 |
| CC(=O)N1CCC(OCc2cncc([C@@](O)(c3ccc(C(C)C)cc3)C3(C)CN(C)C3)c2)CC1 [Example 427] | 0.292 |
| CC(C)c1ccc([C@](O)(c2cnnc(C3CCOCC3)c2)C2(C)CN(C)C2)cc1 [Example 428, (R)-(1,3-Dimethyl-azetidin-3-yl)-(4-isopropyl-phenyl)-[6-(tetrahydro-pyran-4-yl)-pyridazin-4-yl]-methanol] | 0.598 |
| CC(C)c1ccc([C@](O)(c2cnnc(O[C@H]3CCOC3)c2)C2(C)CN(C)C2)cc1 [Example 430, (R)-(1,3-Dimethyl-azetidin-3-yl)-(4-isopropyl-phenyl)-{6-[(S)-(tetrahydro-furan-3-yl)oxy]-pyridazin-4-yl}-methanol] | 0.209 |
| CC(C)c1ccc([C@](O)(c2cnnc(O[C@@H]3CCOC3)c2)C2(C)CN(C)C2)cc1 [Example 431, (R)-(1,3-Dimethyl-azetidin-3-yl)-(4-isopropyl-phenyl)-{6-[(R)-(tetrahydro-furan-3-yl)oxy]-pyridazin-4-yl}-methanol] | 0.197 |
| CC1CC(=O)N(c2cc([C@@](O)(c3ccc(C(C)C)cc3)C3(C)CN(C)C3)cnn2)C1 (stereo partly shown) [Example 432] | 0.146 |
| CC(C)c1ccc([C@](O)(c2cnnc(N3CCC(C)(C)C3=O)c2)C2(C)CN(C)C2)cc1 [Example 434] | 0.147 |
| CC(C)c1ccc([C@](O)(c2cnnc(N3CC(C)(C)CC3=O)c2)C2(C)CN(C)C2)cc1 [Example 435] | 0.175 |
| CC(C)c1ccc([C@](O)(c2cnnc(N3CC4(CCOCC4)CC3=O)c2)C2(C)CN(C)C2)cc1 [Example 439] | 0.265 |
| CC(C)c1ccc([C@](O)(c2cnnc(N3CC(c4ccccn4)CC3=O)c2)C2(C)CN(C)C2)cc1 (stereo partly shown) [Example 441] | 0.118 |
| COCCC1CCN(c2cc([C@@](O)(c3ccc(C(C)C)cc3)C3(C)CN(C)C3)cnn2)C1=O (stereo partly shown) [Example 442] | 0.177 |

These reach a lower IC50. Values come first.

| IC50 [µM] | Compound |
| --- | --- |
| 0.107 | CC(C)c1ccc([C@](O)(c2cncc(OC3CCC(=O)CC3)c2)C2(C)CN(C)C2)cc1 [Example 424, 4-{5-[(R)-(1,3-Dimethyl-azetidin-3-yl)-hydroxy-(4-isopropyl-phenyl)-methyl]-pyridin-3-yloxy}-cyclohexanone] |
| 0.107 | Cc1cc([C@@](C)(O)C#Cc2cncc([C@@](O)(c3ccc(C(C)C)cc3)C3(C)CN(C)C3)c2)ncn1 [Example 399] |
| 0.103 | CC(C)c1ccc([C@](O)(c2cnnc(CCC(C)(O)c3ccccc3)c2)C2(C)CN(C)C2)cc1 (stereo partly drawn) [Example 429, 4-{5-[(R)-(1,3-Dimethyl-azetidin-3-yl)-hydroxy-(4-isopropyl-phenyl)-methyl]-pyridazin-3-yl}-2-phenyl-butan-2-ol] |
| 0.0952 | CC(C)c1ccc([C@](O)(c2cnnc(N3CC(C(F)(F)F)CC3=O)c2)C2(C)CN(C)C2)cc1 (stereo partly shown) [Example 437] |
| 0.09 | CC(C)c1ccc([C@](O)(c2cncc(CCC3(O)CCN(C(=O)OC(C)(C)C)C3)c2)C2(C)CN(C)C2)cc1 (stereo partly shown) [Example 412] |
| 0.0863 | COc1cc(C(C)(O)CCc2cncc([C@@](O)(c3ccc(C(C)C)cc3)C3(C)CN(C)C3)c2)ncn1 (stereo partly shown) [Example 411] |
| 0.0849 | CC(C)c1ccc([C@](O)(c2cncc(CCc3ccccc3CO)c2)C2(C)CN(C)C2)cc1 [Example 410] |
| 0.0667 | CC(=O)N1CCC(F)(c2nc(-c3cncc([C@@](O)(c4ccc(C(C)C)cc4)C4(C)CN(C)C4)c3)no2)CC1 [Example 422] |
| 0.0619 | CC(C)c1ccc([C@](O)(c2cncc(CCC(C)(O)c3ccccn3)c2)C2(C)CN(C)C2)cc1 (stereo partly shown) [Example 415] |
| 0.0618 | CC(=O)N1CCC(C)(c2nc(-c3cncc([C@@](O)(c4ccc(C(C)C)cc4)C4(C)CN(C)C4)c3)no2)CC1 [Example 423] |
| 0.0601 | CC(C)c1ccc([C@](O)(c2cnnc(Oc3ccc(CCO)cc3)c2)C2(C)CN(C)C2)cc1 [Example 395] |
| 0.0585 | CC(C)c1ccc([C@](O)(c2cnnc(N3CCC(C(C)C)C3=O)c2)C2(C)CN(C)C2)cc1 (stereo partly shown) [Example 433] |
| 0.0536 | CC(C)c1ccc([C@](O)(c2cnnc(N3CC(C4CC4)CC3=O)c2)C2(C)CN(C)C2)cc1 (stereo partly shown) [Example 438] |
| 0.0518 | CCC(O)(C#Cc1cncc([C@@](O)(c2ccc(C(C)C)cc2)C2(C)CN(C)C2)c1)c1cc(C)ncn1 (stereo partly shown) [Example 398] |
| 0.0518 | CC(C)c1ccc([C@](O)(c2cncc(C#CC3CCN(C(=O)OC(C)(C)C)CC3)c2)C2(C)CN(C)C2)cc1 [Example 407] |
| 0.0507 | CC(C)c1ccc([C@](O)(c2cnnc(N3CC4(CCCCC4)OC3=O)c2)C2(C)CN(C)C2)cc1 [Example 440] |
| 0.0488 | COC(=O)c1ccccc1CCc1cncc([C@@](O)(c2ccc(C(C)C)cc2)C2(C)CN(C)C2)c1 [Example 409] |
| 0.0404 | CC(C)c1ccc([C@](O)(c2cncc(C#CC3(c4ccc(F)cc4)CC3)c2)C2(C)CN(C)C2)cc1 [Example 403] |
| 0.0376 | CC(C)c1ccc([C@](O)(c2cncc(C#CC3(O)CCN(C(=O)OC(C)(C)C)C3)c2)C2(C)CN(C)C2)cc1 (stereo partly shown) [Example 406] |
| 0.0367 | CC(C)c1ccc([C@](O)(c2cncc(CCc3cc4cccnc4[nH]3)c2)C2(C)CN(C)C2)cc1 [Example 413, (R)-(1,3-Dimethyl-azetidin-3-yl)-(4-isopropyl-phenyl)-{5-[2-(1H-pyrrolo[2,3-b]pyridin-2-yl)-ethyl]-pyridin-3-yl}-methanol] |
| 0.0353 | CC(C)c1ccc([C@](O)(c2cnnc(N3CC(c4ccccc4)CC3=O)c2)C2(C)CN(C)C2)cc1 (stereo partly shown) [Example 443] |
| 0.0347 | CC(C)c1ccc([C@](O)(c2cncc(CCC3CCN(C(=O)OC(C)(C)C)CC3)c2)C2(C)CN(C)C2)cc1 [Example 414, 4-(2-{5-[(R)-(1,3-Dimethyl-azetidin-3-yl)-hydroxy-(4-isopropyl-phenyl)-methyl]-pyridin-3-yl}-ethyl)-piperidine-1-carboxylic acid tert-butyl ester] |
| 0.0344 | CC(C)c1ccc([C@](O)(c2cnnc(Oc3ccc4c(c3)CCCO4)c2)C2(C)CN(C)C2)cc1 [Example 396] |
| 0.0334 | CC(C)c1ccc([C@](O)(c2cnnc(N3Cc4ccccc4C3=O)c2)C2(C)CN(C)C2)cc1 [Example 444] |
| 0.0291 | CC(C)c1ccc([C@](O)(c2cnnc(Oc3ccc4[nH]c(=O)oc4c3)c2)C2(C)CN(C)C2)cc1 [Example 397] |
| 0.0177 | CC(C)c1ccc([C@](O)(c2cncc(COC3CCCC3)c2)C2(C)CN(C)C2)cc1 [Example 426, (R)-(5-Cyclopentyloxymethyl-pyridin-3-yl)-(1,3-dimethyl-azetidin-3-yl)-(4-isopropyl-phenyl)-methanol] |
| 0.0147 | CC(C)c1ccc([C@](O)(c2cncc(CCC(O)(c3ccccn3)C3CC3)c2)C2(C)CN(C)C2)cc1 (stereo partly shown) [Example 416] |
